# In article PMC7932537, “Quantitative profiling of protease specificity” (PLoS Computational Biology, 2021):
# What was measured:
# [1] = target: MMP-9 (Homo sapiens, UniProt P14780); test: K(obs) of individual phage substrates (set of 1369); type: biochemical; conditions: MMP9, individual phage substrates, set of 1369 peptides
# [2] = target: T1, MMP-2 (Homo sapiens, UniProt P08253); test: as above; type: biochemical; conditions: MMP2
# T1 sequence (P08253 110-660): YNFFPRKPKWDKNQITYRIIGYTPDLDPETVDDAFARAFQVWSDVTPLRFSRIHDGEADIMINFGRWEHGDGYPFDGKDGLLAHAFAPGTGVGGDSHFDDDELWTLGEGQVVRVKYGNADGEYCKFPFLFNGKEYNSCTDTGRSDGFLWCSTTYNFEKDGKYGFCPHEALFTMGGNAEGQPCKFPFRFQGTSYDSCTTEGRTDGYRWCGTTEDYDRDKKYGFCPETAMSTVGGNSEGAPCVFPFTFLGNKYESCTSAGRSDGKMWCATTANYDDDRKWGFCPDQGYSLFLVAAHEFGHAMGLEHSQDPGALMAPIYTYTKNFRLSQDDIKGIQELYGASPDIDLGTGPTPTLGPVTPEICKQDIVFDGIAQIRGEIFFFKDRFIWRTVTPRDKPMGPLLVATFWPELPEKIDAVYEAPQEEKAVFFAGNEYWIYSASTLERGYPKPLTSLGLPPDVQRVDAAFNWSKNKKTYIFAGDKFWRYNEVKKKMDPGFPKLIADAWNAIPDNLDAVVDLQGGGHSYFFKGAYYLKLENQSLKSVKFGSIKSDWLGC
# [3] = '-' marks the cleavage position (P1-P1')
# [4] = individual phage substrates, set of 1369 peptides, cleavage position marked by '-' in the sequence
# [5] = dash in sequence marks cleavage position
# [6] = individual phage substrate from the set of 1369 peptides, cleavage position marked by the dash in the sequence
# Sequence of MMP-9 (P14780 94-707): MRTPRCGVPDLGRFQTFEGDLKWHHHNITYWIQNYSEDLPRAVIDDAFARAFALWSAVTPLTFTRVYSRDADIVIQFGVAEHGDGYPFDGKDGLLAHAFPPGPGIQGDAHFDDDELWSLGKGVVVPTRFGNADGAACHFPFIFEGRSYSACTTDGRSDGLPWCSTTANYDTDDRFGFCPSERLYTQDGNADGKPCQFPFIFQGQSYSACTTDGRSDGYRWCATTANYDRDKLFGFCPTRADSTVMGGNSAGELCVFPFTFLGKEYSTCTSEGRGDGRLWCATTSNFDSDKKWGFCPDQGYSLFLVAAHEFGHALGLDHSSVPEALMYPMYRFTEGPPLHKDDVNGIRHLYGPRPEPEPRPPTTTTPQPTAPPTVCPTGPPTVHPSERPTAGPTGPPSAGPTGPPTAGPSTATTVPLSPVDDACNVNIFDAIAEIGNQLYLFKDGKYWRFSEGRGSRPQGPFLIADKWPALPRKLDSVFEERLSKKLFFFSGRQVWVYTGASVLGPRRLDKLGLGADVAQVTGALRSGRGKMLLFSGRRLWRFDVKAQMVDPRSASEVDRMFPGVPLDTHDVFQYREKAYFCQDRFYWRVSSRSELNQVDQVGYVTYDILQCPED
Substance,"Kobs [1, 3] [M⁻¹ s⁻¹]","Kobs [2, 4] [M⁻¹ s⁻¹]","Kobs [1, 5] [M⁻¹ s⁻¹]","Kobs [2, 6] [M⁻¹ s⁻¹]"
GRALA-MQTAS,2218.08,3637.04,,
GRAQN-LLTAS,1071.29,484.315,,
GRASA-LNTAS,0,517.582,,
GRASR-LVTAS,,,0,551.253
GRAWG-LITAS,,,1981.53,3165.09
GRAWM-MVTAS,,,27.918,0
GRHQS-LRTAS,0,836.403,,
GRIAL-LTTAS,0,7815.03,,
GRLGC-LKTAS,113.394,1112.44,,
GRPHP-LSTAS,8941.32,12792.1,,
GRPLQ-YRTAS,10866.7,12792.1,,
GRPMN-LRTAS,12792.1,10866.7,,
GRVAH-LRTAS,1112.44,12792.1,,
GRVHR-LSTAS,0,0,,
GRVLH-LRTAS,2280.5,3850.82,,
GRVWH-LQTAS,1327.88,551.253,,
GSAHL-LLTAS,0,27.918,,
GSALA-LTTAS,1196.62,619.843,,
GSGAK-LIVRT,0,0,,
GSGAW-LKKIT,0,0,,
GSGFA-LVAKT,,,323.705,0
GSGFQ-LRVFT,84.609,0,,
GSGHR-LMMGT,,,0,0
GSGLA-LKMGT,,,0,84.609
GSGLE-LRVNT,231.616,0,,
GSGMA-LTHIT,,,84.609,84.609
GSGMR-LVLRT,0,0,,

Substance,"Kobs [1, 3] [M⁻¹ s⁻¹]","Kobs [2, 4] [M⁻¹ s⁻¹]","Kobs [1, 5] [M⁻¹ s⁻¹]","Kobs [2, 6] [M⁻¹ s⁻¹]"
GSGNF-LRKMT,484.315,1196.62,,
GSGNR-LMRLT,0,0,,
GSGNS-LKRRT,,,0,142.481
GSGQG-LKVRT,231.616,201.585,,
GSGQG-LRMGT,,,0,0
GSGSD-LKSKT,,,355.093,12792.1
GSGWD-LKRST,,,0,142.481
GSGWR-LTVGT,,,27.918,0
GSPLD-LKTAS,,,8941.32,12792.1
GSPLS-WRTAS,6396.07,7815.03,,
GSPVQ-LTTAS,1327.88,1816.46,,
GSPVW-LRTAS,9740.44,12792.1,,
GTIAH-LHTAS,0,10866.7,,
GTIAY-LNTAS,0,1870.4,,
GTIDL-LTTAS,201.585,0,,
GTIFR-LTASG,619.843,551.253,,
GTLAQ-ISTAS,,,517.582,0
GTLLD-LITAS,0,0,,
GTMMS-LMTAS,0,1763.55,,
GTPLG-QITAS,5461.43,12792.1,,
GTPSK-LYTAS,,,2038.8,6131.32
GTVRH-LSTAS,1925.41,6396.07,,
GTVWA-LTTAS,2218.08,292.668,,
GVAGA-LYTAS,0,2097.28,,
GVAKP-LWTAS,2280.5,484.315,,
GVGHN-LRTAS,231.616,142.481,,
GVINQ-LRTAS,,,355.093,517.582

Substance,"Kobs [1, 3] [M⁻¹ s⁻¹]","Kobs [2, 4] [M⁻¹ s⁻¹]","Kobs [1, 5] [M⁻¹ s⁻¹]","Kobs [2, 6] [M⁻¹ s⁻¹]"
GVLFH-LSTAS,0,0,,
GVLGH-LSTAS,0,3438.54,,
GVLHS-LRTAS,0,0,,
GVLMR-LNTAS,0,0,,
GVMMQ-LVTAS,0,0,,
GVPFM-ILTAS,,,4922.1,484.315
GVPLN-VKTAS,12792.1,5090.5,,
GVPQW-IHTAS,5889.62,4335.13,,
GVPSW-LSTAS,12792.1,12792.1,,
GVSAR-LVTAS,,,0,142.481
GVVHS-FCTAS,0,0,,
GWGDR-LTTAS,,,292.668,1154.21
GWMHE-LKTAS,0,0,,
GWVGH-LSTAS,,,386.839,10866.7
GYGLH-LRTAS,261.974,201.585,,
GYYGE-LLTAS,27.918,990.764,,
HGPMS-LTASG,10866.7,10866.7,,
HHPAA-LTASG,12792.1,12792.1,,
HLFQW-LTASG,,,0,7015.91
HLPTA-LTASG,8941.32,12792.1,,
HLVAW-LTASG,10866.7,10866.7,,
HRPFG-LTASG,12792.1,12792.1,,
HVLQN-LTASG,201.585,12792.1,,
HWPRF-LTASG,,,10866.7,10866.7
HYPSS-LTASG,12792.1,12792.1,,
IEYLN-YTASG,355.093,231.616,,
